Values after ≈ are worked out from the molar mass of the structure shown.
Columns and labels:
Type in all cases: functional
Klebsiella pneumoniae [1] = experiment: Potency index, ratio of ciprofloxacin MIC to compound MIC for Klebsiella pneumoniae
Staphylococcus aureus [2] = experiment: Antibacterial activity against Staphylococcus aureus assessed as growth inhibition by serial dilution method
[3] = system: Mycobacterium tuberculosis; experiment: Antimycobacterial activity against Mycobacterium tuberculosis H37Rv assessed as growth inhibition at 1 to 100 ug/mL by resazurin assay
[4] = system: Mycolicibacterium smegmatis; experiment: Antimycobacterial activity against Mycobacterium smegmatis ATCC 19420 assessed as growth inhibition at 1 to 100 ug/mL by resazurin assay
[5] = system: Mycolicibacterium fortuitum; experiment: Antimycobacterial activity against Mycobacterium fortuitum ATCC 19542 assessed as growth inhibition at 0.3125 to 5 ug/mL by resazurin assay
[6] = system: Mycolicibacterium smegmatis; experiment: Antimycobacterial activity against Mycobacterium smegmatis ATCC 19420 assessed as growth inhibition at 0.3125 to 5 ug/mL by resazurin assay
Rhizopus = experiment: Antifungal activity against Rhizopus sp. assessed as growth inhibition by serial dilution method
Staphylococcus aureus [7] = experiment: Potency index, ratio of ciprofloxacin MIC to compound MIC for Staphylococcus aureus
[8] = system: Mycobacterium tuberculosis; experiment: Antimycobacterial activity against Mycobacterium tuberculosis H37Rv assessed as growth inhibition at 0.3125 to 5 ug/mL by resazurin assay
Escherichia coli = experiment: Antibacterial activity against Escherichia coli assessed as growth inhibition by serial dilution method
Klebsiella pneumoniae [9] = experiment: Antibacterial activity against Klebsiella pneumoniae assessed as growth inhibition by serial dilution method
Aspergillus flavus = experiment: Antifungal activity against Aspergillus flavus assessed as growth inhibition by serial dilution method
[10] = system: Mycolicibacterium fortuitum; experiment: Antimycobacterial activity against Mycobacterium fortuitum ATCC 19542 assessed as growth inhibition at 1 to 100 ug/mL by resazurin assay
Candida albicans = experiment: Antifungal activity against Candida albicans assessed as growth inhibition by serial dilution method

In the case of O=[N+]([O-])c1ccc(OCc2nc3cc(Br)ccc3n2S(=O)(=O)c2cc(F)ccc2F)cc1, the PI (Klebsiella pneumoniae [1]) was 2, the MIC (Staphylococcus aureus [2]) was 4 µg/mL (≈ 7.63 µM) and the “growth inhibition (GI)” value [3] was 95%. The MIC ([3]; Mycobacterium tuberculosis, H37Rv) was 1 µg/mL (≈ 1.91 µM), the MIC [4] was 10 µg/mL (≈ 19.1 µM) and the MIC [5] was 10 µg/mL (≈ 19.1 µM). It also gave an MIC [6] of 10 µg/mL (≈ 19.1 µM), an MIC (Rhizopus) of 16 µg/mL (≈ 30.5 µM) and a PI (Staphylococcus aureus [7]) of 1. It also gave an MIC [8] of 0.625 µg/mL (≈ 1.19 µM), an MIC (Escherichia coli) of 32 µg/mL (≈ 61 µM) and an MIC (Klebsiella pneumoniae [9]) of 4 µg/mL (≈ 7.63 µM). The MIC (Aspergillus flavus) was 8 µg/mL (≈ 15.3 µM), the MIC [10] was 10 µg/mL (≈ 19.1 µM) and the MIC (Candida albicans) was 16 µg/mL (≈ 30.5 µM).

From ChEMBL document CHEMBL2417425, “Design and synthesis of positional isomers of 5 and 6-bromo-1-[(phenyl)sulfonyl]-2-[(4-nitrophenoxy)methyl]-1H-benzimidazoles as possible antimicrobial and antitubercular agents” (2013)
